Measurements taken from paper PMC10564737, “Structure-based design of a phosphotyrosine-masked covalent ligand targeting the E3 ligase SOCS2” (Nature Communications, 2023).
Where “and” joins values, the source holds several entries; their conditions need not be identical. Identical values can stand only once. Like-named read-outs stand apart in the source and are kept apart here.

Biological target: T1, SBC2 (Homo sapiens, UniProt O14508)
T1 construct: SOCS2 (amino acids 32–198); His6 (N, cleaved yes); made in house; host or cells: E. coli BL21(DE3)
T1 sequence (O14508 32-198): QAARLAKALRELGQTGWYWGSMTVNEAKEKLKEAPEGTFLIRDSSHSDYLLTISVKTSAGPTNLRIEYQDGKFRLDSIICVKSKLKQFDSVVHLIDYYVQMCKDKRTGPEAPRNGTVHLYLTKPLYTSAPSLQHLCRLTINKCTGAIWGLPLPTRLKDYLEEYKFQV
T1 sequence (Q15370 1-104 partner limits assumed): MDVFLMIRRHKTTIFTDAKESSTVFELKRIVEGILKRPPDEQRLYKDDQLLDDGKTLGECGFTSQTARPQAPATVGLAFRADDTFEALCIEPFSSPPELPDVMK
T1 sequence (Q15369 17-112 partner limits assumed): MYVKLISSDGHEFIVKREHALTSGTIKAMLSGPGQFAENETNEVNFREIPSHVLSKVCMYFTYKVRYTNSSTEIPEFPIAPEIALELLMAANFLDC
Experiment: Covalent fluorescence polarization (FP) probe displacement assay
Assay type: binding
Set-up: Michaelis-Menten best-fit value Vmax / Michaelis-Menten best-fit Vmax: unit not given here
Details: for Anisotropy: Cycle 12 (55 min)
Text: With the specific covalent modification of Cys111 established, we decided to fully characterize MN551 as a covalent SOCS2 inhibitor. […] (Fig. 2g, h, Supplementary Fig. 9). Due to the covalent nature of the competing inhibitor, a time-dependent reduction in the fraction of protein-bound probe is observed. […] This value illustrates reasonable specificity for a covalent inhibitor, with nonetheless scope for future optimization. In addition to characterizing the kinetic covalency parameters, we have also assessed the stability of the MN551 by monitoring its reactivity (half-life >70 min) with reduced glutathione (GSH) (Supplementary Fig. 10)[35].
To monitor the SBC2-ligand binding kinetics we designed a fluorescein-labeled small-molecule probe - compound 26. The fluorescence polarization (anisotropy) of a threefold serial dilution of 50 µM SBC2 in 10 nM of the probe in 100 mM HEPES pH 7.5, 50 mM NaCl, 0.5 mM TCEP, 2% DMSO was measured to determine the KL (Supplementary Fig. 9A) (BMG Labtech PHERAstar – firmware v1.33). Protein titration and the curves were fitted using GraphPad Prism 9, using one-site fitting models to determine the probe binding constant, KL. Samples were run in triplicate in 384 well plates, using a total volume per well of 16 μL. The bound fraction of the probe is measure using the equation:1 Fb=Af−A/Af−Ab Where,
A time-dependent reduction in probe anisotropy were measured for a 2-fold serial dilution of […] compound MN551 in 10 nM probe +300 μM SBC2. To determine the initial reversible binding affinity, the initial bound fraction of the probe at time = 0, Fbo (the y-intercept in Fb v/s Time plot, Supplementary Fig. 9B) was plotted against MN551 concentration, and the obtained IC50 is then converted to Ki (Supplementary Fig. 9C)[17]. The slope from Fb versus time graph when divided by Fbo gives rate of covalency, kobs. A plot of kobs v/s MN551 concentration using Michaelis–Menten model of GraphPad Prism 9, provides the parameters kinact (maximum potential rate of inactivation) and KI (concentration of MN551 at which kobs = kinact/2) (Supplementary Fig. 9D, E).
The observed first-order rate constant, kobs is related to KI and kinact by the equation:2 kobs=kinactI/KI+I
At [I]«[KI] the above equation is converted to3 […]
The slope from the plot of kobs against concentration of MN551 gives us the covalent efficiency parameter kinact/KI (Supp Fig. 9F)[30],[33].

[1] = MN551 1562.5 nM, Cycle 6 (25 min)
[2] = MN551 3125 nM, Cycle 6 (25 min)
[3] = MN551 6250 nM, Cycle 6 (25 min)
[4] = MN551 12500 nM, Cycle 6 (25 min)
[5] = MN551 25000 nM, Cycle 6 (25 min)
[6] = MN551 50000 nM, Cycle 6 (25 min)
[7] = linear fit through origin, 14 X values

## O=C(CCl)Nc1cccc(CNC(=O)[C@H](Cc2ccc(OP(=O)(O)O)cc2)NC(=O)Cc2ccc(F)cc2)c1 [MN551]
MN551 1562.5 nM, Cycle 7 (30 min)
  Anisotropy based on Raw Data (485): 249.9 and 251.8 and 246.3
MN551 1562.5 nM, Cycle 2 (5 min)
  Fb, fraction bound: 0.7824 and 0.8178 and 0.7856
MN551 1562.5 nM, Cycle 3 (10 min)
  Fb, fraction bound: 0.7647 and 0.786 and 0.7702
[1]
  Anisotropy data 485,520,520: 247 and 253 and 251
  Fb: 0.6849 and 0.7296 and 0.7125
MN551 1562.5 nM
  Anisotropy: 232.7 and 235.9 and 233.9
MN551 3125 nM, Cycle 7 (30 min)
  Anisotropy based on Raw Data (485): 236.7 and 234.8 and 231.2
MN551 3125 nM, Cycle 3 (10 min)
  Fb, fraction bound: 0.6544 and 0.6694 and 0.6412
[2]
  Anisotropy data 485,520,520: 232.2 and 235.2 and 237.3
  Fb: 0.5431 and 0.5648 and 0.5878
MN551 3125 nM
  Anisotropy: 219.6 and 215.4 and 213.4
MN551 6250 nM, Cycle 7 (30 min)
  Anisotropy based on Raw Data (485): 210.9 and 211.2 and 208.6
MN551 6250 nM, Cycle 3 (10 min)
  Fb, fraction bound: 0.4366 and 0.4454 and 0.4414
[3]
  Anisotropy data 485,520,520: 214.2 and 214.4 and 216.1
  Fb: 0.3707 and 0.3722 and 0.3949
MN551 6250 nM
  Anisotropy: 197.5 and 192.2 and 194.7
MN551 6250 nM, Cycle 19 (90 min), n=1
  Anisotropy data 485,520,520: 182.4 and 180.6 and 182.5
MN551 12500 nM, Cycle 7 (30 min)
  Anisotropy based on Raw Data (485): 198.9 and 196.3 and 194.4
MN551 12500 nM, Cycle 3 (10 min)
  Fb, fraction bound: 0.2711 and 0.337 and 0.3633
[4]
  Anisotropy data 485,520,520: 197.3 and 198 and 197.2
  Fb: 0.2088 and 0.2204 and 0.2229
MN551 12500 nM
  Anisotropy: 181.6 and 186.4 and 190.6
MN551 12500 nM, Cycle 19 (90 min), n=1
  Anisotropy data 485,520,520: 175.8 and 177.4 and 179.3
MN551 25000 nM, Cycle 7 (30 min)
  Anisotropy based on Raw Data (485): 184.9 and 182.9 and 181.5
MN551 25000 nM, Cycle 8 (35 min)
  Anisotropy based on Raw Data (485): 180.7 and 181.6
MN551 25000 nM, Cycle 3 (10 min)
  Fb, fraction bound: 0.1627 and 0.184 and 0.1553
[5]
  Anisotropy data 485,520,520: 189.8 and 187 and 188.6
  Fb: 0.137 and 0.1185 and 0.1447
MN551 25000 nM
  Anisotropy: 177.2 and 177.1 and 175
MN551 25000 nM, Cycle 19 (90 min), n=1
  Anisotropy data 485,520,520: 168.3 and 171.4 and 169.1
MN551 50000 nM, Cycle 7 (30 min)
  Anisotropy based on Raw Data (485): 181.6 and 178.4 and 180.2
MN551 50000 nM, Cycle 8 (35 min)
  Anisotropy based on Raw Data (485): 179.2 and 176.8 and 178.5
MN551 50000 nM, Cycle 3 (10 min)
  Fb, fraction bound: 0.08456 and 0.09836 and 0.08356
[6]
  Anisotropy data 485,520,520: 185.8 and 181.1 and 183.7
  Fb: 0.09866 and 0.06389 and 0.1001
MN551 50000 nM
  Anisotropy: 173.6 and 173.5 and 174.7
MN551 50000 nM, Cycle 19 (90 min), n=1
  Anisotropy data 485,520,520: 167.6 and 168.6 and 168.7
MN551 100000 nM, Cycle 7 (30 min)
  Anisotropy based on Raw Data (485): 179.4 and 180.3 and 179.5
MN551 100000 nM, Cycle 8 (35 min)
  Anisotropy based on Raw Data (485): 176.4 and 175.9
MN551 100000 nM, Cycle 3 (10 min)
  Fb, fraction bound: 0.06066 and 0.07013 and 0.06449
MN551 100000 nM, Cycle 6 (25 min)
  Anisotropy data 485,520,520: 179.9 and 183.4
MN551 100000 nM
  Anisotropy: 176.4 and 173.8 and 174.3
MN551 100000 nM, Cycle 19 (90 min), n=1
  Anisotropy data 485,520,520: 171.6 and 169.1
Mean, n = 3, time = 0, read-out: Ki
  Ki: 1110 nM
Calculated from IC50 at time = 0, read-out: Ki at time = 0 (initial reversible binding affinity)
  Ki: 1100 nM
Experiment n=1, 95% CI 0.01343 to 0.01564
  Michaelis-Menten best-fit value Vmax: 0.0145
Experiment n=1, Y = 3.349e-006*X + 0.000, 95% CI 3.026e-006 to 3.671e-006
  Linear fit best-fit value Slope: 3.349e-6
[7]
  Slope of linear regression (Equation Y = slope*X + 0.000), covalent efficiency: Y = 3.866e-006*X + 0.000
  Slope, 95% Confidence Intervals: 3.764e-006 to 3.969e-006
Mean ± SEM, n = 3
  kinact (maximum potential rate of inactivation): 2.1 × 10^–4 s^-1
Mean ± SEM, n = 3, read-out: kinact (maximum potential rate of inactivation)
  kinact: 0.0125 min⁻¹
mean, n = 3
  kinact/KI (covalent efficiency): 57.53 M⁻¹ s⁻¹
mean, n = 3, read-out: Ki
  Ki: 3560.67 nM
mean, n = 3, read-out: Kinact (converted)
  kinact: 0.0153 min⁻¹
mean, n = 3, read-out: kinact/KI (covalent efficiency)
  kinact/KI: 3480 M⁻¹ min⁻¹
n=2 experiment
  Michaelis-Menten Vmax, 95% CI (profile likelihood): 0.01305 to 0.01515
n=2 experiment, R squared 0.9902
  Michaelis-Menten best-fit value Vmax: 0.01406
n=2 experiment, from Michaelis-Menten fit (Vmax), read-out: Kinact (min-1) (converted)
  kinact: 0.0141 min⁻¹
n=2 experiment, from Michaelis-Menten fit (Vmax), read-out: Kinact (s-1)
  kinact: 0.014 min⁻¹
read-out: Slope: Kinact/Ki (M-1min-1), FP competition assay to evaluate MN551 covalent efficiency, replicate n=3, Michaelis-Menten fit
  kinact/KI: 3690 M⁻¹ min⁻¹
Replicate n=3, 95% CI 0.01570 to 0.01942
  Michaelis-Menten best-fit Vmax: 0.01742
Replicate n=3, Y-intercept 0
  Linear fit 1/slope: 258642
Replicate n=3, Y-intercept 0, MN551 below Ki titration
  Linear fit best-fit Slope: 3.866e-6
Single replicates
  Kinact, individual replicates n1-n3: 0.014 min⁻¹
  Kinact/KI, individual replicates n1-n3: 52.40 M⁻¹ s⁻¹
Single replicates, read-out: Kinact, individual replicates n1-n3 (converted)
  kinact: 0.0174 min⁻¹
Single replicates, read-out: Kinact/KI, individual replicates n1-n3
  kinact/KI: 3860 M⁻¹ min⁻¹
